Test: xn = mol fraction of the nth substance listed

CCc1n(S(=O)(=O)O)cc[n+]1S(=O)(=O)O.O=C([O-])C(F)(F)F + CO
electrical conductivity [S/m], 101 kPa
Details | 283.15 K | 293.15 K | 298.15 K | 313.15 K
x1 = 0.0052 | – | – | 1.51 | –
x1 = 0.0255 | – | – | 3.08 | –
x1 = 0.02551 | 3.57 | 3.28 | 3.08 | 2.7

CC[N+](CC)(CC)CC.O=S(=O)([O-])C(F)(F)F + CC#N
100 kPa
Details | electrical conductivity [S/m]
293.15 K, x1 = 0.02 | 2.56
293.15 K, x1 = 0.05 | 4.03
298.15 K, x1 = 0.0997 | 4.87
308.15 K, x1 = 0.1498 | 4.75
318.15 K, x1 = 0.05 | 4.94
318.15 K, x1 = 0.2995 | 3.89
323.15 K, x1 = 0.2995 | 4.16
333.15 K, x1 = 0.2 | 5.43
333.15 K, x1 = 0.25 | 4.96
333.15 K, x1 = 0.2995 | 4.73
348.15 K, x1 = 0.02 | 3.67
348.15 K, x1 = 0.08 | 6.89
348.15 K, x1 = 0.1498 | 6.97

CCCC[P+](CCCC)(CCCC)CCCC.[Br-] + O
Details | viscosity [mPa·s]
298.15 K, 101 kPa, x1 = 0.09759 | 10.65

CCCCCCCCCCCCCC[P+](CCCCCC)(CCCCCC)CCCCCC.Cc1ncc([N+](=O)[O-])[n-]1 + COCCOCCOCCOCCOC
viscosity [mPa·s], 100 kPa
Details | 278.15 K | 283.15 K | 288.15 K | 293.15 K | 298.15 K | 303.15 K | 308.15 K | 313.15 K | 318.15 K | 323.15 K
x2 = 0.151 | 2535 | 1685 | 1140 | 791 | 563 | 411 | 306 | 232 | 179 | 141
x2 = 0.399 | 595 | 425 | 308 | 228 | 173 | 134 | 106 | 85 | 69 | 57

CC[n+]1ccn(C)c1.O=S(=O)([O-])C(F)(F)F + O
101 kPa
Details | electrical conductivity [S/m] | viscosity [mPa·s]
293.15 K, x1 = 0.004 | – | 1.07
293.15 K, x1 = 0.029 | – | 1.67
293.15 K, x1 = 0.041 | – | 2.01
293.15 K, x1 = 0.463 | – | 13.6
297.45 K, x2 = 0.304 | 1.17 | –
298.15 K, x1 = 0.005 | 1.4 | 0.99
298.15 K, x1 = 0.012 | 2.3 | 1.11
298.15 K, x1 = 0.017 | – | 1.23
298.15 K, x1 = 0.041 | – | 1.78
298.15 K, x1 = 0.064 | 4.4 | 2.17
298.15 K, x1 = 0.137 | 4.6 | 3.71
303.15 K, x1 = 0.008 | – | 0.92
303.15 K, x1 = 0.017 | – | 1.09
303.15 K, x1 = 0.137 | – | 3.27
303.15 K, x1 = 0.391 | – | 8.23
303.65 K, x2 = 0.304 | 1.46 | –
305.35 K, x2 = 0.304 | 1.58 | –
313.15 K, x1 = 0.004 | – | 0.7
313.15 K, x1 = 0.017 | 3.9 | 0.89
313.15 K, x1 = 0.029 | 5.1 | 1.05
313.15 K, x1 = 0.137 | 6.3 | 2.58

CCCC[P+](CC)(CCCC)CCCC.[Br-] + OCCO
101 kPa, x1 = 0.333
Details | viscosity [mPa·s]
303.15 K | 43.82
313.15 K | 29.04
323.15 K | 20.08
333.15 K | 14.44
343.15 K | 10.69
353.15 K | 8.22

CC[n+]1ccn(C)c1.O=S(=O)([O-])C(F)(F)F + OCC(O)CO
100 kPa
Details | electrical conductivity [S/m] | viscosity [mPa·s]
293.15 K, x1 = 0.002 | – | 1372
293.15 K, x2 = 0.199 | – | 48.9
293.15 K, x2 = 0.605 | – | 97.9
293.15 K, x2 = 0.698 | – | 146.4
293.15 K, x2 = 0.962 | – | 968
298.15 K, x1 = 0.002 | 0.000274 | –
298.15 K, x1 = 0.004 | 0.00056 | –
298.15 K, x1 = 0.011 | 0.00141 | –
298.15 K, x1 = 0.018 | 0.00247 | –
298.15 K, x2 = 0.401 | 0.68 | 45.4
303.15 K, x2 = 0.962 | – | 425
313.15 K, x1 = 0.002 | 0.00084 | –
313.15 K, x1 = 0.004 | 0.00176 | –
313.15 K, x1 = 0.011 | 0.00439 | –
313.15 K, x1 = 0.018 | 0.0079 | 243
313.15 K, x2 = 0.299 | 1.27 | 23.4

CCCCCCCCCC[n+]1ccn(C)c1.O=S(=O)([O-])C(F)(F)C(F)(F)C(F)(F)C(F)(F)F + O
298.15 K, 100 kPa
Details | electrical conductivity [S/m]
x1 = 1.66e-06 | 0.00043
x1 = 2.36e-06 | 0.00063
x1 = 3.06e-06 | 0.00086
x1 = 4.11e-06 | 0.00114
x1 = 5.17e-06 | 0.00146
x1 = 5.95e-06 | 0.00163
x1 = 6.65e-06 | 0.00186
x1 = 7.44e-06 | 0.00212
x1 = 8.14e-06 | 0.00237
x1 = 8.76e-06 | 0.00252
x1 = 9.8e-06 | 0.00283
x1 = 1.042e-05 | 0.003
x1 = 1.103e-05 | 0.00323
x1 = 1.164e-05 | 0.00343
x1 = 1.234e-05 | 0.00363
x1 = 1.323e-05 | 0.00389
x1 = 1.384e-05 | 0.00412
x1 = 1.445e-05 | 0.00429
x1 = 1.506e-05 | 0.00446
x1 = 1.586e-05 | 0.00466
x1 = 1.638e-05 | 0.00486
x1 = 1.699e-05 | 0.00506
x1 = 1.779e-05 | 0.00529
x1 = 1.831e-05 | 0.00541
x1 = 1.901e-05 | 0.00569
x1 = 1.971e-05 | 0.00578
x1 = 2.058e-05 | 0.00601
x1 = 2.171e-05 | 0.00621
x1 = 2.26e-05 | 0.00635
x1 = 2.33e-05 | 0.00649
x1 = 2.443e-05 | 0.00669
x1 = 2.512e-05 | 0.00678
x1 = 2.618e-05 | 0.00695
x1 = 2.714e-05 | 0.00703
x1 = 2.793e-05 | 0.0072
x1 = 2.907e-05 | 0.00729
x1 = 3.011e-05 | 0.0074
x1 = 3.116e-05 | 0.00746
x1 = 3.229e-05 | 0.00763
x1 = 3.361e-05 | 0.00777
x1 = 3.526e-05 | 0.00791
x1 = 3.649e-05 | 0.008
x1 = 3.815e-05 | 0.00814
x1 = 3.971e-05 | 0.00825
x1 = 4.103e-05 | 0.00831

[Br-].[Li+] + CCCC[n+]1ccn(C)c1.N#C[S-] + CN1CCCC1=O
298.15 K, 101 kPa
Details | viscosity [mPa·s]
x2 = 0, x1 = 0.02626 | 2.359
x2 = 0, x1 = 0.05114 | 3.124
x2 = 0, x1 = 0.07535 | 4.344

[Br-].[Li+] + CCCCCCCCn1cc[n+](C)c1.N#C[S-] + CN1CCCC1=O
298.15 K, 101 kPa
Details | viscosity [mPa·s]
x2 = 0, x1 = 0.02595 | 2.385
x2 = 0, x1 = 0.05088 | 3.13
x2 = 0, x1 = 0.07505 | 4.349

O=S(=O)([O-])C(F)(F)F.[Li+] + O
Details | electrical conductivity, 298.1 K [S/m] | electrical conductivity, 298.15 K [S/m] | electrical conductivity, 308.15 K [S/m] | electrical conductivity, 318.15 K [S/m] | electrical conductivity, 328.15 K [S/m] | viscosity, 298.15 K [mPa·s] | viscosity, 308.15 K [mPa·s] | viscosity, 318.15 K [mPa·s] | viscosity, 328.15 K [mPa·s]
100 kPa, x1 = 0.1122 | – | 7.3 | 8.94 | 10.9 | 12.7 | 3.7 | 2.9 | 2.27 | 1.85
100 kPa, x1 = 0.1783 | – | 4.63 | 5.73 | 6.99 | 8.17 | 9.2 | 6.9 | 5.3 | 4.2
100 kPa, x1 = 0.2388 | – | 2.6 | 3.26 | 4.06 | 4.89 | 21.9 | 16 | 11.1 | 8.6
100 kPa, x1 = 0.2541 | – | 1.98 | 2.53 | 3.16 | 3.92 | 31.8 | 22.6 | 15.9 | 12.2
100 kPa, x1 = 0.2743 | – | 1.56 | 2.04 | 2.59 | 3.2 | 47.2 | 32.9 | 23.9 | 18.1
101 kPa, x1 = 0.01944 | 4.69 | – | – | – | – | – | – | – | –
101 kPa, x1 = 0.1527 | 4.69 | – | – | – | – | – | – | – | –
101 kPa, x1 = 0.2649 | 1.34 | – | – | – | – | – | – | – | –
101 kPa, x1 = 0.3106 | 0.51 | – | – | – | – | – | – | – | –

CC[n+]1ccn(C)c1.[I-] + CCO
Details | electrical conductivity [S/m]
298.15 K, 100 kPa, x1 = 0.4385 | 2.22

CC[NH+](C)CC.CS(=O)(=O)[O-] + O + CC[NH+](C)CC.O=S(=O)([O-])C(F)(F)F
101 kPa, x2 = 0.121, x3 = 0
Details | viscosity [mPa·s]
313.15 K | 46.5
333.15 K | 21.6
353.15 K | 12.05

CC[NH+](CC)CC.O=[N+]([O-])[O-] + CC[NH3+].O=[N+]([O-])[O-]
101 kPa, frequency 0.00293 MHz
Details | electrical conductivity [S/m]
293.15 K, x1 = 0.149 | 1.28
293.15 K, x1 = 0.1997 | 1.15
293.15 K, x1 = 0.25 | 0.97
293.15 K, x1 = 0.2993 | 0.86
293.15 K, x1 = 0.3475 | 0.79
298.15 K, x1 = 0.149 | 1.52
303.15 K, x1 = 0.3475 | 1.12
313.15 K, x1 = 0.3995 | 1.38
313.15 K, x1 = 0.4472 | 1.23
323.15 K, x1 = 0.0999 | 3.31
323.15 K, x1 = 0.3995 | 1.8

101 kPa
Details | viscosity [mPa·s]
293.15 K, x1 = 0.149 | 55.3
293.15 K, x1 = 0.1997 | 62.8
293.15 K, x1 = 0.25 | 69.1
293.15 K, x1 = 0.2993 | 76.9
293.15 K, x1 = 0.3475 | 83.5
298.15 K, x1 = 0.149 | 45.3
303.15 K, x1 = 0.3475 | 54.8
313.15 K, x1 = 0.3995 | 40.8
313.15 K, x1 = 0.4472 | 44.4
323.15 K, x1 = 0.0999 | 19.7
323.15 K, x1 = 0.3995 | 29.1
323.15 K, x1 = 0.5003 | 33.1
328.15 K, x1 = 0.149 | 18.1
328.15 K, x1 = 0.3995 | 25.1
328.15 K, x1 = 0.5003 | 28.3
328.15 K, x1 = 0.5485 | 27.4
333.15 K, x1 = 0.1997 | 17.5
333.15 K, x1 = 0.5003 | 24.7
333.15 K, x1 = 0.5485 | 23.9
338.15 K, x1 = 0.2993 | 17.3
338.15 K, x1 = 0.4472 | 20.3
343.15 K, x1 = 0.0499 | 11.6
343.15 K, x1 = 0.2993 | 15.3
348.15 K, x1 = 0.0999 | 11.1
348.15 K, x1 = 0.2993 | 13.7
348.15 K, x1 = 0.4472 | 15.7
353.15 K, x1 = 0.2993 | 12.4

Cc1n(S(=O)(=O)O)cc[n+]1S(=O)(=O)O.O=C([O-])C(F)(F)F + CO
Details | electrical conductivity [S/m]
298.15 K, 101 kPa, x1 = 0.0104 | 1.52
